Experimental data reported in ChEMBL document CHEMBL5291721, “A preclinical secondary pharmacology resource illuminates target-adverse drug reaction associations of marketed drugs” (Nat Commun, 2023).

Key:
[1] = biological target: T1, 5-hydroxytryptamine receptor 2B (Homo sapiens, UniProt P41595); format: functional, cell-based
D(1A) dopamine receptor = D(1A) dopamine receptor (Homo sapiens, UniProt P21728); format: functional, cell-based
[2] = biological target: T1, 5-hydroxytryptamine receptor 2B; format: functional, cell-based; remark: listed apart in the source
Progesterone receptor = biological target: T2, Progesterone receptor (Homo sapiens, UniProt P06401); format: functional
T2 sequence (P06401 whole entry): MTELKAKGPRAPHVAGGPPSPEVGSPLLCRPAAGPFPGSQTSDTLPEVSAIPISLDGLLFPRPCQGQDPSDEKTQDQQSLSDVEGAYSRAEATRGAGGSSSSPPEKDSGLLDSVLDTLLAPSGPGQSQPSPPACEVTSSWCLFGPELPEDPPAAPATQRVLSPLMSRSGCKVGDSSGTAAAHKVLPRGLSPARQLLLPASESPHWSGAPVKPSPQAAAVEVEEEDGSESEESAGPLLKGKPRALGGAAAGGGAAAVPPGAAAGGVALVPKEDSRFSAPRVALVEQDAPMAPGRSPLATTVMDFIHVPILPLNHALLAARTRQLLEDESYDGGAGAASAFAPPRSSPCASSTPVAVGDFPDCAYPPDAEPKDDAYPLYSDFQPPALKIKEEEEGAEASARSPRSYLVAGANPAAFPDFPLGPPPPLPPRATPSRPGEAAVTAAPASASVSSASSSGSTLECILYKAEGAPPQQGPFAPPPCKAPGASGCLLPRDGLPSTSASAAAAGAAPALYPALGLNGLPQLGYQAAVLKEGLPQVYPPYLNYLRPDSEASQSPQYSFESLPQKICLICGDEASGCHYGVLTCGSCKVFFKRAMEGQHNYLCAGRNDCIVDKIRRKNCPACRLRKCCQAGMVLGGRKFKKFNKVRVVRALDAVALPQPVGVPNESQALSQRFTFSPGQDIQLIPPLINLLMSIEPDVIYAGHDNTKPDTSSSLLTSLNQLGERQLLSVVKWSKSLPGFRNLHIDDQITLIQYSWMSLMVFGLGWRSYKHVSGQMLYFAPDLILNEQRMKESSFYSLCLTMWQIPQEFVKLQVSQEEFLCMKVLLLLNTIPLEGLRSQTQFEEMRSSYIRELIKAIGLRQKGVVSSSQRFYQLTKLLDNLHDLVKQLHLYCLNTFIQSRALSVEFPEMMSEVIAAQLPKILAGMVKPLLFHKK

Cannabinoid receptor 1 = Cannabinoid receptor 1 (Homo sapiens, UniProt P21554); format: functional, cell-based
[3] = biological target: Sodium-dependent dopamine transporter (Homo sapiens, UniProt Q01959)
[4] = biological target: T3, Prostaglandin G/H synthase 1 (Rattus norvegicus, UniProt Q63921); format: functional
T3 sequence (Q63921 whole entry): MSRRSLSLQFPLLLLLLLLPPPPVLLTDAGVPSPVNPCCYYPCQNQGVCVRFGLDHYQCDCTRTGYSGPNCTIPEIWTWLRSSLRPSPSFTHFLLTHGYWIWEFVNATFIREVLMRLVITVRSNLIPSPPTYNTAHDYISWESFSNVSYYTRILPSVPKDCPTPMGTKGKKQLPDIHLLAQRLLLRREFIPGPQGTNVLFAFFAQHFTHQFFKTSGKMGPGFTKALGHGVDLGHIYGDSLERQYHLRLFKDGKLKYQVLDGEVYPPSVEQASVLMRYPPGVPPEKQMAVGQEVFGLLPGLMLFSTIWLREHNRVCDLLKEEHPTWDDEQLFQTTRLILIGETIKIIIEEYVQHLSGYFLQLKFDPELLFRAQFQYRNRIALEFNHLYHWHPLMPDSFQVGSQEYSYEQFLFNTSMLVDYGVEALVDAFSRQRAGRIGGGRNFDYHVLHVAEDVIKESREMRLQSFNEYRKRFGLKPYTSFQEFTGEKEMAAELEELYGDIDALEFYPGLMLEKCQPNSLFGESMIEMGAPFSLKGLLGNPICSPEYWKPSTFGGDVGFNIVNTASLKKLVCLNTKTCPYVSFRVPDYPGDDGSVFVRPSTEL

[5] = biological target: T4, Type-1 angiotensin II receptor (Homo sapiens, UniProt P30556)
T4 sequence (P30556 whole entry): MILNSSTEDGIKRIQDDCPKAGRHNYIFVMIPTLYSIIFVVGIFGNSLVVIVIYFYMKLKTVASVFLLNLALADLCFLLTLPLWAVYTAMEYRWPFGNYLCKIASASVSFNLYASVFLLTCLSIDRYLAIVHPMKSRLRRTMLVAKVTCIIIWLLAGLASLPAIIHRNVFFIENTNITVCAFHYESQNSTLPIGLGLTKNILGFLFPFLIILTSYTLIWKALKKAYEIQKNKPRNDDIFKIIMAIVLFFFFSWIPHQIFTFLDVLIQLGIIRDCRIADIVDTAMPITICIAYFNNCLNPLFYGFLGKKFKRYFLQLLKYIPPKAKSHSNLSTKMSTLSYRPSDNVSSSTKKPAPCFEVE

[6] = biological target: T5, Gastrin/cholecystokinin type B receptor (Homo sapiens, UniProt P32239)
T5 sequence (P32239 whole entry): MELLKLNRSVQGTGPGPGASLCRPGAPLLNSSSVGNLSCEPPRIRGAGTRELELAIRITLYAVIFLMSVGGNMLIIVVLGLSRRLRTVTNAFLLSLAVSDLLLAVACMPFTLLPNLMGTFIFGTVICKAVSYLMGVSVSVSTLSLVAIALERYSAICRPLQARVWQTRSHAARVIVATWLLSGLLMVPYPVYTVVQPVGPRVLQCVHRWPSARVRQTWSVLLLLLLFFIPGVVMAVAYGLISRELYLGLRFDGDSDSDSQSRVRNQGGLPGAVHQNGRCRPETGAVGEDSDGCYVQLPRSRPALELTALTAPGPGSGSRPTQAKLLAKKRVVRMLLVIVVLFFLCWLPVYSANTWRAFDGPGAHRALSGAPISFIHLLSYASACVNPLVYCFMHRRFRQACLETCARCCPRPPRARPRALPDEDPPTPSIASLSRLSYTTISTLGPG

Histamine H3 receptor = Histamine H3 receptor (Homo sapiens, UniProt Q9Y5N1)
[7] = biological target: Glutamate receptor ionotropic, NMDA 1 (Rattus norvegicus, UniProt P35439)
Also: assay procedure not described here.

Chain of Cannabinoid receptor 1 (P21554 whole entry): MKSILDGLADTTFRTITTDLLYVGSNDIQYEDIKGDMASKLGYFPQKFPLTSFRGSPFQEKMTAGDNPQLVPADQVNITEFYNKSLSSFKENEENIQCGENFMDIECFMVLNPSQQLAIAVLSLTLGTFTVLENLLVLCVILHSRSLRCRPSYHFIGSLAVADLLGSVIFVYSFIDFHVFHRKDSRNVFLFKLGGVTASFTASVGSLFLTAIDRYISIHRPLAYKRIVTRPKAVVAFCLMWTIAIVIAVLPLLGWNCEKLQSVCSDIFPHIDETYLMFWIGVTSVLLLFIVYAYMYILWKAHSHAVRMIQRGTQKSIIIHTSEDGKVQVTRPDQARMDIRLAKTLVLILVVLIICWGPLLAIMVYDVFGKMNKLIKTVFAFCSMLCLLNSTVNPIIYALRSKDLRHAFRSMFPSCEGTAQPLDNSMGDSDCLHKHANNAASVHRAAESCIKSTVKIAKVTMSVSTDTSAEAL
Chain of D(1A) dopamine receptor (P21728 whole entry): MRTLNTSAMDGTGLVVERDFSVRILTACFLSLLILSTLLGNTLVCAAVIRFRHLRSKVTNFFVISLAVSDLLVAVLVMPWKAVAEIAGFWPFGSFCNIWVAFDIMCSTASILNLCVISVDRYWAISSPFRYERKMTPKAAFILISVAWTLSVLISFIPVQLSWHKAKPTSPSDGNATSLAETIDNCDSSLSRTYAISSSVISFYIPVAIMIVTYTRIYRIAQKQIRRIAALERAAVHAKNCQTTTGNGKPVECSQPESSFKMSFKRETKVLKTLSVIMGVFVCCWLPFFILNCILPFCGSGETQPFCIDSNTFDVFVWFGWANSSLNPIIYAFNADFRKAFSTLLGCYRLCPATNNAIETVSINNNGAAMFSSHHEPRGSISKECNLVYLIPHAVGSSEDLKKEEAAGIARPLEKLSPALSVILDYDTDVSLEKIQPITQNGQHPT
T1 sequence (P41595 whole entry): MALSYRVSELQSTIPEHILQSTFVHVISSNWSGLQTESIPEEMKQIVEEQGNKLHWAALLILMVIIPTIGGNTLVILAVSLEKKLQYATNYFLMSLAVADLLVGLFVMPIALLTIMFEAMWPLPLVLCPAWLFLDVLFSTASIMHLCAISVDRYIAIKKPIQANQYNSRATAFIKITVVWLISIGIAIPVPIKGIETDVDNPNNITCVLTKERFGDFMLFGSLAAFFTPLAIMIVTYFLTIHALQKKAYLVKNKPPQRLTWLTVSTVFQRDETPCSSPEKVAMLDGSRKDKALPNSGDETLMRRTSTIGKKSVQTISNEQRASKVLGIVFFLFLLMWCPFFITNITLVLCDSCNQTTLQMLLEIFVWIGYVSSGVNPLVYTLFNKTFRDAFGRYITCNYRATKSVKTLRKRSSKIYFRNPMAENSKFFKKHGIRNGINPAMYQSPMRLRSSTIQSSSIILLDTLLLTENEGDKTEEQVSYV
Chain of Sodium-dependent dopamine transporter (Q01959 whole entry): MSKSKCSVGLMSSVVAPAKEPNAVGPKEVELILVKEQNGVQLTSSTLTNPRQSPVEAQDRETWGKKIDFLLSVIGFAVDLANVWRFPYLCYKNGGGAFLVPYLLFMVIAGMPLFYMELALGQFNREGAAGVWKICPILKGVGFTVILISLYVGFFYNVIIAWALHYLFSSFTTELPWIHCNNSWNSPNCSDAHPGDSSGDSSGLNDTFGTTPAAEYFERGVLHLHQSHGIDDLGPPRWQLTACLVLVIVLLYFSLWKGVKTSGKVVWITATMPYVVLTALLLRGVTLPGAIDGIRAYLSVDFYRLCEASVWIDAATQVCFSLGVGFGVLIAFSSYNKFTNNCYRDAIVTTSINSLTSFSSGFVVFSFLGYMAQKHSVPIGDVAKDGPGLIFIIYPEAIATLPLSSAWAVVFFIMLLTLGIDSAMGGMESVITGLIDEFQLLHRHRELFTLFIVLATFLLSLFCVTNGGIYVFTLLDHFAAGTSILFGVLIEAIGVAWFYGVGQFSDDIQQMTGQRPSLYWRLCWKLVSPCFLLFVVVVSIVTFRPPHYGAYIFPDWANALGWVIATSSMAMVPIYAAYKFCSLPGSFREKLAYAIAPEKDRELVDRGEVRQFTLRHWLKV
Chain of Histamine H3 receptor (Q9Y5N1 whole entry): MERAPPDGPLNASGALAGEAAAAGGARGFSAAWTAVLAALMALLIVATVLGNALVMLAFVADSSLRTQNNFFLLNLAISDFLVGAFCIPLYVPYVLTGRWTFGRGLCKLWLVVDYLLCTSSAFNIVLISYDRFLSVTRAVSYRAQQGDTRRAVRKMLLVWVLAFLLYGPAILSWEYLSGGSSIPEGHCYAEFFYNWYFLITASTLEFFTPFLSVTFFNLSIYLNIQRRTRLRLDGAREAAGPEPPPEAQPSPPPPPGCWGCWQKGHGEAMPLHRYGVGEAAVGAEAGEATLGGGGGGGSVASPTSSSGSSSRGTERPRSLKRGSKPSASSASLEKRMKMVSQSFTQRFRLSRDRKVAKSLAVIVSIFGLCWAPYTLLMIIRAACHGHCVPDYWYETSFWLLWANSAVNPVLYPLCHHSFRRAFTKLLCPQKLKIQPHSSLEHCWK

Structure (SMILES)	AC50 [1] [µM]	AC50 (D(1A) dopamine receptor) [µM]	AC50 [2] [µM]	AC50 (Progesterone receptor) [µM]	AC50 (Cannabinoid receptor 1) [µM]	AC50 [3] [µM]	AC50 [4] [µM]	AC50 [5] [µM]	AC50 [6] [µM]	AC50 (Histamine H3 receptor) [µM]	AC50 [7] [µM]
CCOc1nc2cccc(C(=O)O)c2n1Cc1ccc(-c2ccccc2-c2nnn[nH]2)cc1	16	> 30	> 30	> 30	> 30	> 30	> 30	0.0005	> 10	> 30	
CCCc1nc2c(C)cc(-c3nc4ccccc4n3C)cc2n1Cc1ccc(-c2ccccc2C(=O)O)cc1	6.33	> 30	> 30	> 30	> 10	> 30	> 30		> 30	> 30	> 30
CC(=O)Nc1ccc(CC(=O)O)cc1 [ACTARIT]	> 30	> 30	> 30	> 30	> 30	> 30	> 30	> 30	> 30	> 30	> 30
CC(C(=O)O)c1ccc2oc(-c3ccc(Cl)cc3)nc2c1 (configuration not stated) [BENOXAPROFEN]	> 30	> 30	> 30	> 30	> 30	> 30		> 30	> 10	> 30	> 30
CC1(C)S[C@@H]2[C@H](NC(=O)C(C(=O)O)c3ccccc3)C(=O)N2[C@H]1C(=O)O (some centres not stated) [CARBENICILLIN]	> 30	> 30	> 30	> 30	> 30	> 30	> 30	> 30	> 30	> 30	> 30
Cc1nnc(SCC2=C(C(=O)O)N3C(=O)[C@@H](NC(=O)Cn4cnnn4)[C@H]3SC2)s1 [CEFAZOLIN]	> 300	> 300	> 300	> 300	> 300	> 300	160	> 300	> 30	> 300	> 30
Cc1ccc(C)c(OCCCC(C)(C)C(=O)O)c1 [GEMFIBROZIL]	4.4	> 10	> 10		> 30	> 10	> 30	> 30	> 30	> 10	> 10
COc1cc(C(C)=O)ccc1OCCCN1CCC(c2noc3cc(F)ccc23)CC1 [ILOPERIDONE]	1.8	> 30	> 30	> 30	> 30	5.95	> 30	> 30	9.33	> 30	
CC[C@H](C)C(=O)O[C@H]1C[C@@H](C)C=C2C=C[C@H](C)[C@H](CC[C@@H]3C[C@@H](O)CC(=O)O3)[C@H]21 [LOVASTATIN]	23	> 10	> 10		> 30	> 10	> 30	39.8	> 30	> 10	> 10
CN1Cc2c(N)cccc2C(c2ccccc2)C1 (configuration not stated) [NOMIFENSINE]		> 30	> 30	> 30	> 30		7.5	> 30	> 30	> 30	> 30
CC(CN1c2ccccc2Sc2ccccc21)N(C)C (configuration not stated) [PROMETHAZINE]	1.4	> 10	> 10		> 30	> 10	> 30	> 30	> 30	> 10	> 10
CC(C)[C@H](N)C(=O)OCCOCn1cnc2c(=O)[nH]c(N)nc21 [VALACYCLOVIR]	> 10	> 10	> 10		> 30	> 10	> 30	> 30	> 30	> 10	> 10
